Reference: the NIST ThermoML archive (doi:10.1021/je8006474)

Experiment: xn = mol fraction of the nth substance listed
Conditions: Pycnometric method

Fc1cc(F)c(F)c(F)c1 [1,2,3,5-tetrafluorobenzene] + CCn1cc[n+](C)c1.O=S(=O)([N-]S(=O)(=O)C(F)(F)F)C(F)(F)F
Conditions	molar volume [m3/mol]
283.5 K, Liquid mixture 1, x1 = 0.659	0.0001523
283.5 K, Liquid mixture 2, x1 = 1	0.0001053
298.3 K, Liquid mixture 1, x1 = 0.652	0.0001562
298.3 K, Liquid mixture 2, x1 = 1	0.0001069
316.7 K, Liquid mixture 1, x1 = 0.647	0.0001579
316.7 K, Liquid mixture 2, x1 = 1	0.0001096
333.2 K, Liquid mixture 1, x1 = 0.638	0.0001605
333.2 K, Liquid mixture 2, x1 = 1	0.0001119
353.1 K, Liquid mixture 1, x1 = 0.631	0.000164
353.1 K, Liquid mixture 2, x1 = 1	0.0001149
373 K, Liquid mixture 1, x1 = 0.623	0.0001688
373 K, Liquid mixture 2, x1 = 1	0.000118

Fc1cc(F)c(F)cc1F [1,2,4,5-tetrafluorobenzene] + CCn1cc[n+](C)c1.O=S(=O)([N-]S(=O)(=O)C(F)(F)F)C(F)(F)F
Conditions	molar volume [m3/mol]
283.3 K, Liquid mixture 1, x1 = 0.736	0.0001422
283.3 K, Liquid mixture 2, x1 = 0.999	0.000103
298.2 K, Liquid mixture 1, x1 = 0.731	0.0001449
298.2 K, Liquid mixture 2, x1 = 0.999	0.0001047
315.5 K, Liquid mixture 1, x1 = 0.725	0.0001473
315.5 K, Liquid mixture 2, x1 = 1	0.0001074
333.2 K, Liquid mixture 1, x1 = 0.718	0.0001508
333.2 K, Liquid mixture 2, x1 = 1	0.0001095
353.1 K, Liquid mixture 1, x1 = 0.71	0.0001551
353.1 K, Liquid mixture 2, x1 = 1	0.0001124
373 K, Liquid mixture 1, x1 = 0.702	0.0001595
373 K, Liquid mixture 2, x1 = 1	0.0001157

Fc1ccc(F)c(F)c1 [1,2,4-trifluorobenzene] + CCn1cc[n+](C)c1.O=S(=O)([N-]S(=O)(=O)C(F)(F)F)C(F)(F)F
molar volume [m3/mol]
Conditions	Liquid mixture 1, x1 = 0.891	Liquid mixture 1, x1 = 0.892	Liquid mixture 1, x1 = 0.893	Liquid mixture 2, x1 = 0.977
362.4 K	–	–	0.0001242	0.0001135
367.4 K	–	0.0001247	–	0.000114
372.4 K	0.0001252	–	–	0.0001145

Fc1cc(F)cc(F)c1 [1,3,5-trifluorobenzene] + CCn1cc[n+](C)c1.O=S(=O)([N-]S(=O)(=O)C(F)(F)F)C(F)(F)F
Conditions	molar volume [m3/mol]
283.5 K, Liquid mixture 1, x1 = 0.497	0.0001754
283.5 K, Liquid mixture 2, x1 = 1	0.0001013
298.2 K, Liquid mixture 1, x1 = 0.498	0.0001762
298.2 K, Liquid mixture 2, x1 = 1	0.0001035
316.6 K, Liquid mixture 1, x1 = 0.487	0.000179
316.6 K, Liquid mixture 2, x1 = 1	0.0001057
333.2 K, Liquid mixture 1, x1 = 0.482	0.0001815
333.2 K, Liquid mixture 2, x1 = 1	0.000108
353.1 K, Liquid mixture 1, x1 = 0.478	0.000183
353.1 K, Liquid mixture 2, x1 = 1	0.0001108
373 K, Liquid mixture 1, x1 = 0.482	0.0001846
373 K, Liquid mixture 2, x1 = 1	0.0001144

Fc1cccc(F)c1 [1,3-difluorobenzene] + CCn1cc[n+](C)c1.O=S(=O)([N-]S(=O)(=O)C(F)(F)F)C(F)(F)F
Conditions	molar volume [m3/mol]
283.3 K, Liquid mixture 1, x1 = 0.757	0.000134
283.3 K, Liquid mixture 2, x1 = 1	9.82e-05
294.4 K, Liquid mixture 1, x1 = 0.755	0.0001363
294.4 K, Liquid mixture 2, x1 = 1	9.93e-05
316.1 K, Liquid mixture 1, x1 = 0.753	0.0001404
316.1 K, Liquid mixture 2, x1 = 1	0.000102
333.3 K, Liquid mixture 1, x1 = 0.748	0.0001429
333.3 K, Liquid mixture 2, x1 = 1	0.000104
353.1 K, Liquid mixture 1, x1 = 0.742	0.000146
353.1 K, Liquid mixture 2, x1 = 1	0.0001065
373 K, Liquid mixture 1, x1 = 0.736	0.0001492
373 K, Liquid mixture 2, x1 = 1	0.000109

Fc1ccc(F)cc1 [1,4-difluorobenzene] + CCn1cc[n+](C)c1.O=S(=O)([N-]S(=O)(=O)C(F)(F)F)C(F)(F)F
Conditions	molar volume [m3/mol]
283.4 K, Liquid mixture 1, x1 = 0.816	0.0001239
283.4 K, Liquid mixture 2, x1 = 1	9.76e-05
294.4 K, Liquid mixture 1, x1 = 0.814	0.0001255
294.4 K, Liquid mixture 2, x1 = 1	9.88e-05
316.2 K, Liquid mixture 1, x1 = 0.81	0.0001288
316.2 K, Liquid mixture 2, x1 = 1	0.000101
343.2 K, Liquid mixture 1, x1 = 0.807	0.0001337
343.2 K, Liquid mixture 2, x1 = 0.999	0.0001038
353.1 K, Liquid mixture 1, x1 = 0.804	0.0001354
353.1 K, Liquid mixture 2, x1 = 0.999	0.000105
373 K, Liquid mixture 1, x1 = 0.799	0.0001387
373 K, Liquid mixture 2, x1 = 0.999	0.0001069

Fc1ccccc1 [fluorobenzene] + CCn1cc[n+](C)c1.O=S(=O)([N-]S(=O)(=O)C(F)(F)F)C(F)(F)F
Conditions	molar volume [m3/mol]
282.5 K, Liquid mixture 1, x1 = 0.875	0.0001125
282.5 K, Liquid mixture 2, x1 = 0.992	9.31e-05
297.9 K, Liquid mixture 1, x1 = 0.875	0.0001137
297.9 K, Liquid mixture 2, x1 = 0.991	9.45e-05
315.5 K, Liquid mixture 1, x1 = 0.874	0.000115
315.5 K, Liquid mixture 2, x1 = 0.99	9.61e-05
333.2 K, Liquid mixture 1, x1 = 0.872	0.0001169
333.2 K, Liquid mixture 2, x1 = 0.989	9.84e-05
353.1 K, Liquid mixture 1, x1 = 0.869	0.0001197
353.1 K, Liquid mixture 2, x1 = 0.989	0.000101
373 K, Liquid mixture 1, x1 = 0.865	0.0001231
373 K, Liquid mixture 2, x1 = 0.989	0.0001035
